“And” between values parts separate entries of the source, which are not always exact repeats. Identical values can stand only once. Toxic doses and inconclusive results are not listed. No stated cut-off is given here; in the data, active means T/C of 150% or more; inactive means T/C below 125%.
Tested on: L1210 leukemia ip in BDF1 mice, survival T/C
Assay: NCI In Vivo Anticancer Drug Screen. Data for tumor model L1210 Leukemia (intraperitoneal) in B6D2F1 (BDF1) mice
Details: endpoint: mean survival time, higher = longer survival
In short: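 Transplantable tumor model; survival measured in treated vs vehicle control mice. Value = treated/control.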

[1] = dose: 100.0 mg/kg/injection, schedule: Q04DX002 (ip), vehicle: Klucel (hydroxypropylcellulose) (HPC)
[2] = dose: 100.0 mg/kg/injection, schedule: Q01DX009 (ip), vehicle: saline with Tween-80
[3] = dose: 200.0 mg/kg/injection, schedule: Q01DX009 (ip), vehicle: saline with Tween-80
[4] = dose: 50.0 mg/kg/injection, schedule: Q01DX001 (ip), vehicle: saline
[5] = dose: 100.0 mg/kg/injection, schedule: Q01DX001 (ip), vehicle: saline
[6] = dose: 200.0 mg/kg/injection, schedule: Q01DX001 (ip), vehicle: saline
[7] = dose: 400.0 mg/kg/injection, schedule: Q01DX001 (ip), vehicle: saline
[8] = dose: 100.0 mg/kg/injection, schedule: Q04DX003 (ip), vehicle: saline
[9] = dose: 200.0 mg/kg/injection, schedule: Q04DX003 (ip), vehicle: saline
[10] = dose: 400.0 mg/kg/injection, schedule: Q04DX003 (ip), vehicle: saline
[11] = dose: 100.0 mg/kg/injection, schedule: Q04DX003 (ip), vehicle: Klucel (hydroxypropylcellulose) (HPC)
[12] = dose: 200.0 mg/kg/injection, schedule: Q04DX003 (ip), vehicle: Klucel (hydroxypropylcellulose) (HPC)
[13] = dose: 100.0 mg/kg/injection, schedule: Q01DX009 (ip), vehicle: saline
[14] = dose: 75.0 mg/kg/injection, schedule: Q01DX001 (ip), vehicle: other

Measured: T/C

Cc1ccnc(NC(=O)CCc2ccccc2)c1
inactive: [1] 95 % of control | dose: 200.0 mg/kg/injection, schedule: Q04DX002 (ip), vehicle: Klucel (hydroxypropylcellulose) (HPC) 100 % of control | dose: 400.0 mg/kg/injection, schedule: Q04DX002 (ip), vehicle: Klucel (hydroxypropylcellulose) (HPC) 92 % of control

O=C(O)C1CCC(CC2CC3CCC2C3)CC1 (stereo not drawn)
inactive: [2] 90 % of control | [3] 96 % of control

C[C@]12C=CC(=O)C=C1CC[C@@H]1[C@@H]2CC[C@]2(C)OC(=O)CC[C@@H]12
inactive: dose: 125.0 mg/kg/injection, schedule: Q01DX Z (sc), vehicle: steriod suspending solution 103 % of control | dose: 250.0 mg/kg/injection, schedule: Q01DX Z (sc), vehicle: steriod suspending solution 102 % of control | dose: 500.0 mg/kg/injection, schedule: Q01DX Z (sc), vehicle: steriod suspending solution 101 % of control | dose: 1000.0 mg/kg/injection, schedule: Q01DX Z (sc), vehicle: steriod suspending solution 101 % of control

NC(=O)C(c1ccccc1)C1(O)CCCCC1 (stereo not drawn)
inactive: [4] 102 % of control | [5] 104 % of control | [6] 96 % of control | [7] 91 % of control

O=C(Nc1cccc(C(F)(F)F)c1)Nc1ccccn1
inactive: dose: 100.0 mg/kg/injection, schedule: Q01DX009 (ip), vehicle: gum acacia 99 % of control | dose: 200.0 mg/kg/injection, schedule: Q01DX009 (ip), vehicle: gum acacia 92 % of control | dose: 400.0 mg/kg/injection, schedule: Q01DX009 (ip), vehicle: gum acacia 89 % of control

O=P(OCCCl)(OCCCl)OCCCl
inactive: [8] 102 % of control | [9] 102 % of control | [10] 103 % of control

CS(=O)CC(O)(c1ccccc1)c1ccccc1 (stereo not drawn)
inactive: [4] 102 % of control | [5] 101 % of control | [6] 98 % of control | [7] 97 % of control

O=C(NC1CCCCC1c1ccccc1)c1ccccc1 (stereo not drawn)
inactive: dose: 75.0 mg/kg/injection, schedule: Q01DX001 (ip), vehicle: carboxymethylcellulose (CMC) 97 % of control and 95 % of control | dose: 150.0 mg/kg/injection, schedule: Q01DX001 (ip), vehicle: carboxymethylcellulose (CMC) 97 % of control and 91 % of control | dose: 300.0 mg/kg/injection, schedule: Q01DX001 (ip), vehicle: carboxymethylcellulose (CMC) 94 % of control and 89 % of control

CCCCCCCCCCCC(=O)NC(=S)Nc1cccc(F)c1
inactive: [11] 95 % of control | [12] 90 % of control

NC1=NC(=S)CS1
inactive: dose: 75.0 mg/kg/injection, schedule: Q04DX003 (ip), vehicle: saline 97 % of control | dose: 150.0 mg/kg/injection, schedule: Q04DX003 (ip), vehicle: saline 94 % of control | dose: 300.0 mg/kg/injection, schedule: Q04DX003 (ip), vehicle: saline 92 % of control

Cc1cc(C)c(S(=O)(=O)O)c(Cc2cccc3ccccc23)c1
inactive: dose: 25.0 mg/kg/injection, schedule: Q01DX009 (ip), vehicle: saline 94 % of control | dose: 50.0 mg/kg/injection, schedule: Q01DX009 (ip), vehicle: saline 102 % of control | dose: 50.0 mg/kg/injection, schedule: Q04DX003 (ip), vehicle: saline 94 % of control | [5] 93 % of control | [13] 96 % of control | [8] 98 % of control | [6] 88 % of control

NNC(=O)c1nc2ccccc2s1
inactive: [14] 96 % of control | dose: 150.0 mg/kg/injection, schedule: Q01DX001 (ip), vehicle: other 98 % of control

O=C(NNc1ccccc1)NNc1ccccc1 (tested in a mixture with another compound)
inactive: dose: 50.0 mg/kg/injection, schedule: Q01DX009 (ip), vehicle: saline with Tween-80 95 % of control | [2] 95 % of control | [3] 99 % of control

OCCCN=Cc1cc(Cl)cc(Cl)c1O
inactive: [5] 98 % of control | [6] 95 % of control | [7] 93 % of control

CCCCC(C)C1(CC)C(=O)NC(=O)NC1=O (stereo not drawn)
inactive: dose: 75.0 mg/kg/injection, schedule: Q01DX001 (ip), vehicle: saline 95 % of control

CC(=O)OCc1ccnc2ccc(OC(C)=O)cc12
inactive: [5] 100 % of control | [6] 98 % of control | [7] 96 % of control

FC(F)=C(F)I
inactive: dose: 50.0 mg/kg/injection, schedule: Q01DX005 (ip), vehicle: other 102 % of control | dose: 100.0 mg/kg/injection, schedule: Q01DX005 (ip), vehicle: other 87 % of control | dose: 100.0 mg/kg/injection, schedule: Q04DX002 (ip), vehicle: other 98 % of control | dose: 200.0 mg/kg/injection, schedule: Q01DX005 (ip), vehicle: other 94 % of control | dose: 200.0 mg/kg/injection, schedule: Q04DX002 (ip), vehicle: other 104 % of control

Cc1no[n+]([O-])c1C(=O)N(C)C
inactive: dose: 25.0 mg/kg/injection, schedule: Q04DX002 (ip), vehicle: Klucel (hydroxypropylcellulose) (HPC) 95 % of control | dose: 50.0 mg/kg/injection, schedule: Q04DX002 (ip), vehicle: Klucel (hydroxypropylcellulose) (HPC) 95 % of control | [1] 95 % of control

[CH3][Pb]([CH3])([CH3])[NH]C#N
inactive: dose: 5.0 mg/kg/injection, schedule: Q04DX003 (ip), vehicle: saline 101 % of control | dose: 10.0 mg/kg/injection, schedule: Q04DX003 (ip), vehicle: saline 86 % of control

CCCCOC(=O)c1ccc(OC(=O)Nc2ccc(OC)cc2Cl)cc1
inactive: dose: 100.0 mg/kg/injection, schedule: Q04DX002 (ip), vehicle: saline 110 % of control | dose: 200.0 mg/kg/injection, schedule: Q04DX002 (ip), vehicle: saline 104 % of control | dose: 400.0 mg/kg/injection, schedule: Q04DX002 (ip), vehicle: saline 100 % of control

COC(=O)C(COS(=O)(=O)c1ccccc1)NC(=O)OCc1ccccc1 (stereo not drawn)
inactive: [13] 100 % of control | [8] 92 % of control | dose: 200.0 mg/kg/injection, schedule: Q01DX009 (ip), vehicle: saline 98 % of control | [9] 97 % of control | dose: 400.0 mg/kg/injection, schedule: Q01DX009 (ip), vehicle: saline 96 % of control | [10] 95 % of control

CCCCCCCCCCCC(=O)[O][Hg][c]1ccccc1
inactive: [14] 91 % of control

CCOC(=O)c1cnc(NN)[nH]c1=O
inactive: [11] 97 % of control | [12] 97 % of control

N#CSCSC#N
inactive: dose: 3.12 mg/kg/injection, schedule: Q04DX003 (ip), vehicle: saline with Tween-80 98 % of control | dose: 6.25 mg/kg/injection, schedule: Q04DX003 (ip), vehicle: saline with Tween-80 96 % of control | dose: 12.5 mg/kg/injection, schedule: Q04DX003 (ip), vehicle: saline with Tween-80 90 % of control

CC(=O)NC1C(OS(=O)(=O)c2ccc(C)cc2)C(NC(C)=O)C(OC(C)=O)C(OC(C)=O)C1OC(C)=O (stereo not drawn)
inactive: [2] 102 % of control | [3] 109 % of control | dose: 400.0 mg/kg/injection, schedule: Q01DX009 (ip), vehicle: saline with Tween-80 100 % of control
